The term speed of sound denotes how fast a sound wave travels through the sample. For orientation: mass density means mass per unit of volume. Broadly, the viscosity is the resistance of a fluid to flow.

Numbers after ± are expanded uncertainties.

Assay in the first series: not given
Conditions: 343.15 K; 100 kPa; Liquid; Frequency=3 MHz; Single path-length method.
Turning to `C=CCn1cc[n+](C)c1.O=S(=O)([N-]S(=O)(=O)C(F)(F)F)C(F)(F)F`, the speed of sound was 1143.5 ± 6.2 m/s.

For `CCCC[N+]1(C)CCCC1.O=S(=O)([N-]S(=O)(=O)C(F)(F)F)C(F)(F)F`, the speed of sound is given as 1173 ± 6.3 m/s.

In the case of `O=S(=O)([N-]S(=O)(=O)C(F)(F)F)C(F)(F)F.On1cc[n+](O)c1` [1,3-dihydroxyimidazolium bis(trifluoromethylsulfonyl)imide], the speed of sound is listed as 1100.2 ± 6.3 m/s.

As to `CCCO` [propan-1-ol], the speed of sound amounted to 1054.5 ± 6 m/s.

Turning to `CC[S+](CC)CC.O=S(=O)([N-]S(=O)(=O)C(F)(F)F)C(F)(F)F` [triethylsulfonium bis((trifluoromethyl)sulfonyl)imide], the speed of sound is reported as 1157.6 ± 6.1 m/s.

The same series, now with this note: 343.15 K; 100 kPa; Liquid; Vibrating tube method.
Turning to `C=CCn1cc[n+](C)c1.O=S(=O)([N-]S(=O)(=O)C(F)(F)F)C(F)(F)F`, the mass density was found to be 1454.75 ± 3.1 kg/m3.

As for `CCCC[N+]1(C)CCCC1.O=S(=O)([N-]S(=O)(=O)C(F)(F)F)C(F)(F)F`, the mass density is 1354.98 ± 3.1 kg/m3.

As to `O=S(=O)([N-]S(=O)(=O)C(F)(F)F)C(F)(F)F.On1cc[n+](O)c1` [1,3-dihydroxyimidazolium bis(trifluoromethylsulfonyl)imide], the mass density was 1688.34 ± 4.1 kg/m3.

Take `CCCO` [propan-1-ol]: the mass density worked out at 761.53 ± 1.5 kg/m3.

Take `CC[S+](CC)CC.O=S(=O)([N-]S(=O)(=O)C(F)(F)F)C(F)(F)F` [triethylsulfonium bis((trifluoromethyl)sulfonyl)imide]: the mass density was 1417.19 ± 2.9 kg/m3.

Another series is described as follows: xn = mol fraction of the nth substance listed. Conditions: 293.15 K; 100 kPa; Liquid; Capillary tube (Ostwald / Ubbelohde) method; x2 = 0.
Consider `CCCO` [propan-1-ol] + C=CCn1cc[n+](C)c1.O=S(=O)([N-]S(=O)(=O)C(F)(F)F)C(F)(F)F, for which the viscosity worked out at 2.14 ± 0.17 mPa·s.

For the compound `CCCO` [propan-1-ol] + CC[S+](CC)CC.O=S(=O)([N-]S(=O)(=O)C(F)(F)F)C(F)(F)F, the viscosity was 2.14 ± 0.17 mPa·s.

Take `CCCO` [propan-1-ol] + O=S(=O)([N-]S(=O)(=O)C(F)(F)F)C(F)(F)F.On1cc[n+](O)c1: the viscosity was determined as 2.14 ± 0.17 mPa·s.

Still in this series, the particulars now being: 293.15 K; 100 kPa; Liquid; Frequency=3 MHz; Single path-length method; x2 = 0.
Regarding `CCCO` [propan-1-ol] + C=CCn1cc[n+](C)c1.O=S(=O)([N-]S(=O)(=O)C(F)(F)F)C(F)(F)F, the speed of sound is 1223.8 ± 6 m/s.

`CCCO` [propan-1-ol] + CC[S+](CC)CC.O=S(=O)([N-]S(=O)(=O)C(F)(F)F)C(F)(F)F: the speed of sound is on record as 1223.8 ± 6 m/s.

For the compound `CCCO` [propan-1-ol] + O=S(=O)([N-]S(=O)(=O)C(F)(F)F)C(F)(F)F.On1cc[n+](O)c1, the speed of sound is 1223.8 ± 6 m/s.

Staying with this series, now noted: 293.15 K; 100 kPa; Liquid; Vibrating tube method; x2 = 0.
With `CCCO` [propan-1-ol] + C=CCn1cc[n+](C)c1.O=S(=O)([N-]S(=O)(=O)C(F)(F)F)C(F)(F)F, the mass density worked out at 804 ± 2 kg/m3.

Take `CCCO` [propan-1-ol] + CC[S+](CC)CC.O=S(=O)([N-]S(=O)(=O)C(F)(F)F)C(F)(F)F: the mass density stood at 804 ± 2 kg/m3.

On to `CCCO` [propan-1-ol] + O=S(=O)([N-]S(=O)(=O)C(F)(F)F)C(F)(F)F.On1cc[n+](O)c1, for which the mass density was determined as 804 ± 2 kg/m3.

Still in this series, the particulars now being: 298.15 K; 100 kPa; Liquid; Capillary tube (Ostwald / Ubbelohde) method; x2 = 0.
With `CCCO` [propan-1-ol] + CC[S+](CC)CC.O=S(=O)([N-]S(=O)(=O)C(F)(F)F)C(F)(F)F, the viscosity worked out at 1.897 ± 0.15 mPa·s.

As to `CCCO` [propan-1-ol] + O=S(=O)([N-]S(=O)(=O)C(F)(F)F)C(F)(F)F.On1cc[n+](O)c1, the viscosity is 1.897 ± 0.15 mPa·s.

The same series, now with this note: 298.15 K; 100 kPa; Liquid; Frequency=3 MHz; Single path-length method; x2 = 0.
In the case of `CCCO` [propan-1-ol] + C=CCn1cc[n+](C)c1.O=S(=O)([N-]S(=O)(=O)C(F)(F)F)C(F)(F)F, the speed of sound is given as 1206.5 ± 6 m/s.

`CCCO` [propan-1-ol] + CC[S+](CC)CC.O=S(=O)([N-]S(=O)(=O)C(F)(F)F)C(F)(F)F: the speed of sound stood at 1206.5 ± 6 m/s.

`CCCO` [propan-1-ol] + O=S(=O)([N-]S(=O)(=O)C(F)(F)F)C(F)(F)F.On1cc[n+](O)c1: the speed of sound was found to be 1206.5 ± 6 m/s.

Staying with this series, now noted: 298.15 K; 100 kPa; Liquid; Vibrating tube method; x2 = 0.
Regarding `CCCO` [propan-1-ol] + CC[S+](CC)CC.O=S(=O)([N-]S(=O)(=O)C(F)(F)F)C(F)(F)F, the mass density amounted to 800 ± 2 kg/m3.

Consider `CCCO` [propan-1-ol] + O=S(=O)([N-]S(=O)(=O)C(F)(F)F)C(F)(F)F.On1cc[n+](O)c1, for which the mass density worked out at 800 ± 2 kg/m3.

Still in this series, the particulars now being: 303.15 K; 100 kPa; Liquid; Capillary tube (Ostwald / Ubbelohde) method; x2 = 0.
Take `CCCO` [propan-1-ol] + C=CCn1cc[n+](C)c1.O=S(=O)([N-]S(=O)(=O)C(F)(F)F)C(F)(F)F: the viscosity came out at 1.688 ± 0.14 mPa·s.

With `CCCO` [propan-1-ol] + CC[S+](CC)CC.O=S(=O)([N-]S(=O)(=O)C(F)(F)F)C(F)(F)F, the viscosity turned out to be 1.688 ± 0.14 mPa·s.

In the case of `CCCO` [propan-1-ol] + O=S(=O)([N-]S(=O)(=O)C(F)(F)F)C(F)(F)F.On1cc[n+](O)c1, the viscosity stood at 1.688 ± 0.14 mPa·s.

Still in this series, the particulars now being: 303.15 K; 100 kPa; Liquid; Frequency=3 MHz; Single path-length method; x2 = 0.
As for `CCCO` [propan-1-ol] + C=CCn1cc[n+](C)c1.O=S(=O)([N-]S(=O)(=O)C(F)(F)F)C(F)(F)F, the speed of sound is reported as 1189.4 ± 6 m/s.

Take `CCCO` [propan-1-ol] + CC[S+](CC)CC.O=S(=O)([N-]S(=O)(=O)C(F)(F)F)C(F)(F)F: the speed of sound turned out to be 1189.4 ± 6 m/s.

In the case of `CCCO` [propan-1-ol] + O=S(=O)([N-]S(=O)(=O)C(F)(F)F)C(F)(F)F.On1cc[n+](O)c1, the speed of sound was 1189.4 ± 6 m/s.

The same series, now with this note: 303.15 K; 100 kPa; Liquid; Vibrating tube method; x2 = 0.
Consider `CCCO` [propan-1-ol] + C=CCn1cc[n+](C)c1.O=S(=O)([N-]S(=O)(=O)C(F)(F)F)C(F)(F)F, for which the mass density was 796 ± 2 kg/m3.

With `CCCO` [propan-1-ol] + CC[S+](CC)CC.O=S(=O)([N-]S(=O)(=O)C(F)(F)F)C(F)(F)F, the mass density was 796 ± 2 kg/m3.

On to `CCCO` [propan-1-ol] + O=S(=O)([N-]S(=O)(=O)C(F)(F)F)C(F)(F)F.On1cc[n+](O)c1, for which the mass density is on record as 796 ± 2 kg/m3.

Still in this series, the particulars now being: 308.15 K; 100 kPa; Liquid; Capillary tube (Ostwald / Ubbelohde) method; x2 = 0.
Take `CCCO` [propan-1-ol] + C=CCn1cc[n+](C)c1.O=S(=O)([N-]S(=O)(=O)C(F)(F)F)C(F)(F)F: the viscosity is recorded as 1.506 ± 0.12 mPa·s.

The values above are taken from the NIST ThermoML archive (doi:10.1021/acs.jced.8b00537).
